{"source": "patent US11912755B2", "about": "“Endostatin fragments and variants for use in treating fibrosis” (iBio, Inc., priority 2015, dated 2024)", "key": {"lysyl oxidase (LOX)": {"system": "lysyl oxidase (LOX)", "settings": "Yamaguchi et al. 2012; cited from earlier work"}, "IGFBP-3": {"system": "IGFBP-3", "assay": "Genes regulated by E4: IGFBP-3", "format": "cell-based, human", "settings": "HuF-T; RT-qPCR, protein expression levels", "description": "Several experiments have been performed to identify the mechanisms by which E4 exerts its anti-fibrotic activity. Real-time quantitative PCR (qPCR)-based arrays were performed on RNA extracted from primary human lung fibroblasts or mouse lung tissue stimulated with various fibrotic triggers in the absence and presence of E4 treatment in order to identify genes influenced by the endostatin peptide.\nThe arrays identified several genes that have been previously implicated in fibrosis to be influenced by E4 treatment. These genes included connective tissue growth factor (CTGF), insulin-like growth factor binding protein (IGFBP)-3, matrix metalloproteases (MMP)-1 and MMP-3, urokinase plasminogen activator (uPA), plasminogen activator inhibitor (PAI)-1, and hepatocyte growth factor (HGF) with levels either decreased or increased in the presence of E4 as shown in TABLE 5."}, "[1]": {"system": "bleomycin induced lung fibrosis", "settings": "i.t.; concomitantly or 3 days after bleomycin; cited from earlier work"}, "[2]": {"system": "bleomycin induced lung fibrosis", "assay": "Bleomycin-induced pulmonary fibrosis in mice (E4)", "format": "in vivo, mouse", "description": "FIG. 10A-10C. E4 attenuates bleomycin induced lung fibrosis in vivo. FIG. 10A: Sixty μg of bleomycin was administrated intratracheally in combination with DMSO as a vehicle (Bleo) or E-4 (Bleo+E-4; 10 μg/ml). In some mice, E-4 (10 μg/ml) was administered intratracheally (IT) three days following bleomycin treatment (Bleo+E-4L). PBS was used as a vehicle for bleomycin (V). Lungs were harvested 10 days post-treatment. Representative images stained with H&E (left panel) and Masson trichrome (right panel) are representative of 3 independent experiments. Magnification, 100×. […] FIG. 10B: Quantification of acid soluble collagen obtained from mouse lungs treated with V. Bleo, Bleo+E-4, and Bleo+E-4L. The levels of collagen are presented as μg/mg (lung) from three independent experiments. Unpaired-t test was used for statistical analysis. *P<0.05. […] FIG. 10C: Lower magnification (2×) of mouse lung shown in FIG. 9 (BLM+E4/E4L IT day 10). For Bleo+E4L, Bleo was administered first, then there was a lag of three days between Bleo and E4 administration).\nFIG. 11. […]\nE4, a peptide representing the carboxy terminus of human endostatin, can attenuate fibrosis triggered by multiple fibrogenic factors. The anti-fibrotic effects of E4 can be detected whether administered concomitantly with or following the fibrogenic trigger. […]\nFor these studies, fibrosis was assessed by measurement of dermal thickness on H&E skin sections (skin), assessment of collagen levels by Masson Trichrome staining (skin and lung), and measurement of collagen levels by Sircol assay (lung). Furthermore, to confirm the mechanism by which E4 exerts its anti-fibrotic effects, the production of extra-cellular matrix (ECM) components, the levels of enzymes that promote matrix stabilization and thus accumulation and levels of those that degrade ECM components, and levels of transcription factors downstream of the pro-fibrotic triggers were evaluated. Results were assessed using the unpaired t test and the 3-way ANOVA (for the ID1 data)."}, "ID1": {"system": "ID1", "assay": "Real-time PCR of ID1 mRNA in primary human lung fibroblasts", "format": "cell-based", "description": "FIG. 15. […] Real-time PCR analysis was performed to determine the ID1 mRNA levels under the indicated conditions."}, "human skin explants": {"system": "human skin explants", "settings": "single dose concurrently with TGF-β; cited from earlier work"}, "[3]": {"system": "human primary skin fibroblasts", "assay": "Western blot of ECM production in primary skin fibroblasts", "format": "cell-based", "settings": "dermal fibroblasts of healthy controls, SSc or morphea patients", "description": "Primary Fibroblast Culture. Human primary lung and skin fibroblasts were cultured. The explanted lungs of normal organ donors, patients with SSc or IPF, and clinically involved skin of SSc patients, a morphea patient and healthy donors were used for primary fibroblast culture. Approximately 2-cm pieces of peripheral lung and skin were minced and fibroblasts were cultured in Dulbecco's modified Eagle's medium (DMEM; Mediatech, Herndon, Va.) supplemented with 10% FBS, penicillin, streptomycin, and anti-mycotic agent, as previously described (Feghali et al., Arthritis Rheum 1999; 42:1451-7). All the cells were used between passages 3-6.\nWestern Blot Analysis. Cellular lysates were obtained from cultured fibroblasts as previously described (Pilewski et al., Am J Pathol 2005; 166:399-407). […] Cellular lysates were analyzed by Western blot. Signals were detected following incubation with horseradish peroxidase-conjugated secondary antibody and chemiluminescence (Perkin Elmer Life Sciences, Inc., Boston, Mass.). The intensity of individual bands with expected molecular sizes was semi-quantitatively analyzed using the image/J® software available at on the Internet (/rsb.info.nih.gov/ij/index.html), and normalized to individual GAPDH intensity."}}, "note": "Entries after “also recorded” stand apart in the source; their conditions may differ. Ends that are not written are not given here.", "data": [{"substance": "E4: SEQ ID NO: 21, amino acids 133-180 of human endostatin with a C-terminal amide (SYCETWRTEAPSATGQASSLLGGRLLGQSAASCHHAYIVLCIENSFMT-NH2; cysteine pairing not given here)", "values": [{"measurement": "levels of lysyl oxidase (LOX)", "setting": "lysyl oxidase (LOX)", "result": "reduces"}, {"measurement": "Effect of E4 peptide on IGFBP-3", "setting": "IGFBP-3", "result": "reduces; also recorded: Decrease"}, {"measurement": "pulmonary fibrosis (microscopy, hydroxyproline/collagen)", "setting": "[1]", "result": "E4 significantly decreased"}, {"measurement": "fibrosis and Masson Trichrome staining in lung", "setting": "[2]; E4 10 μg/ml IT concomitantly with or three days following bleomycin, day 10", "result": "marked reduction"}, {"measurement": "collagen levels in mouse lungs", "setting": "[2]; E4 given 3 days after bleomycin, acid soluble collagen", "result": "significantly reduced"}, {"measurement": "bleomycin induced lung fibrosis on day 21", "setting": "[2]; bleomycin IT day 1, E4 IP or IT at day 3", "result": "significant attenuation"}, {"measurement": "ID1 levels", "setting": "ID1", "result": "increases; also recorded: inducing expression"}, {"measurement": "collagen increase", "setting": "human skin explants", "result": "skin thickness and attenuated"}, {"measurement": "skin thickness", "setting": "human skin explants", "result": "TGF-β, significantly decreased"}, {"measurement": "TGF-β-induced ECM production", "setting": "[3]", "result": "reduced"}]}]}
